“And” between values parts separate entries of the source, which are not always exact repeats. Identical values can stand only once.

One may read the melting point as the temperature of the solid-liquid transition.

`Nc1nc[nH]n1` [3-amino-1,2,4-triazole] displayed a melting point of 151 °C.

`O=C1NC(=O)C(c2ccccc2)(c2ccccc2)N1` [5,5-diphenylhydantoin]: the melting point came to 296 °C.

`CCC1CO1` (configuration not stated) [2-Ethyloxirane] returned a melting point of -60 °C.

`CC(=O)c1ccccc1N` [o-aminoacetophenone] gave a melting point of 20 °C.

In turn, `NC(=O)c1ccccc1O` [salicylamide] registered a melting point of 142 °C.

`CCOC(=O)Nc1ccc(NCc2ccc(F)cc2)nc1N` [flupirtine] registered a melting point of 114 °C.

In the case of `Nc1cccc2cnccc12` [5-aminoisoquinoline], the melting point came to 129 °C.

The compound `O=C(O)c1cc(I)ccc1Cl` [2-chloro-5-iodobenzoic acid] registered a melting point of 159 °C.

Turning to `CC1CCC(C(C)C)C(O)C1` (racemic) [dl-menthol], the melting point was 29 °C.

`OB(O)c1cccc(-c2ccccc2)c1` [biphenyl-3-boronic acid] came in with a melting point of 209 °C.

`CC(=O)C(=O)O` [Pyruvic acid] showed a melting point of 11.8 °C.

In turn, `O=C(O)CCc1ccccc1` [3-phenylpropanoic_acid] had a melting point of 49 °C.

As for `CCC1(CCC(C)C)C(=O)NC(=O)NC1=O` [Inmetal], the melting point was determined as 156 °C.

`CF` [fluoromethane] came in with a melting point of -142 °C.

Compound `CCCCCC(N)=O` [hexanamide] displayed a melting point of 101 °C.

In the case of `c1ccc(Oc2ccccc2)cc1` [diphenyl ether], the melting point amounted to 28 °C.

Compound `Nc1ccccc1CO` [2-aminobenzyl alcohol] yielded a melting point of 83 °C.

As for `CCc1nc(N)nc(Cl)c1C` [4-chloro-6-ethyl-5-methylpyrimidin-2-amine], the melting point stood at 139 °C.

`C=CCN1C(=O)C(CC(C)C)NC1=S` (configuration not stated) [albutoin] registered a melting point of 210 °C.

`O=C(O)Cn1cncn1` [1h-1,2,4-triazole-1-acetic acid] displayed a melting point of 203 °C.

The compound `Nc1ccc2c(c1)OCCCO2` [3,4-dihydro-2h-1,5-benzodioxepin-7-amine] gave a melting point of 79 °C.

On to `O/N=C/c1ccccc1O` [salicylaldoxime], for which the melting point came to 57 °C.

As for `Clc1ccccc1C(Cl)(Cl)Cl` [2-chlorobenzotrichloride], the melting point was 30 °C.

As for `O=C1Nc2ccc(Cl)cc2C(c2ccccc2Cl)=NC1O` (configuration not stated) [lorazepam], the melting point came out at 167 °C.

Compound `CC(=O)NC(CCC(N)=O)C(=O)O` (configuration not stated) [aceglutamide] showed a melting point of 197 °C.

`CCc1ccc(NC(=S)NN)cc1` [4-(4-ethylphenyl)-3-thiosemicarbazide] yielded a melting point of 130 °C.

For `O=[N+]([O-])c1c(Cl)c(Cl)cc(Cl)c1Cl` [2,3,5,6-tetrachloro-nitrobenzene], the melting point came to 99.5 °C.

The compound `Cc1cc2ccccc2[n+]([O-])c1` [3-methylquinoline n-oxide] returned a melting point of 89 °C.

On to `Cc1ccc(-n2c(C)cc(C=O)c2C)cc1` [OSM-S-29], for which the melting point worked out at 110 °C.

`ClC(Cl)C(Cl)Cl` [1,1,2,2-Tetrachloroethane] came in with a melting point of -43 °C.

Compound `C=Cc1ccc(C(=O)O)cc1` [4-vinylbenzoic acid] yielded a melting point of 142 °C.

In turn, `N[C@@H](Cc1ccc(F)c(F)c1)C(=O)O` (racemic) [3,4-difluoro-dl-phenylalanine] displayed a melting point of 233 °C.

`CC(C)C(C(=O)O)C(=O)O` [isopropylmalonic acid] had a melting point of 89 °C.

For the compound `CCCCCCCCCCCCCCc1ccccc1` [N-tetradecylbenzene], the melting point is 9 °C.

`N#Cc1c(N)sc2c1CCCC2` [2-Amino-4,5,6,7-tetrahydrobenzo(b)thiophene-3-carbonitrile] displayed a melting point of 143 °C.

As for `Cc1nnc(S)s1` [5-methyl-1,3,4-thiadiazole-2-thiol], the melting point was 187 °C.

`C=CCOc1ccc(CC(=O)O)cc1Cl` [Alclofenac]: the melting point was 92 °C.

Consider `O=C(O)c1ccc(Br)cc1` [p-bromobenzoic_acid], for which the melting point came out at 253 °C.

The compound `COc1ccc(C=O)c(OC)c1OC` [2,3,4-trimethoxybenzaldehyde] registered a melting point of 40 °C.

The compound `OB(O)c1cccc(C(F)(F)F)c1` [3-(trifluoromethyl)benzeneboronic acid] came in with a melting point of 164 °C.

In the case of `C1=CCC=C1` [Cyclopenta-1,3-diene], the melting point is -97.2 °C.

For `CC(C)NCC(O)COc1cccc2ccccc12` (configuration not stated) [propranolol], the melting point came out at 129 °C.

For the compound `Cc1ccccc1N` [o-toluidine], the melting point is -24 °C.

Consider `[C-]#[N+]CS(=O)(=O)c1ccc(C)cc1` [p-toluenesulfonylmethyl isocyanide], for which the melting point amounted to 112 °C.

Regarding `COc1ccc(Cl)cc1C(=O)NCCc1ccc(S(=O)(=O)NC(=O)NC2CCCCC2)cc1` [Glibenclamide], the melting point worked out at 170 °C.

Regarding `COC(=O)[C@H](C)O` [methyl (S)-lactate], the melting point is -44 °C.

`CCCCCCCCCCCCCCCCCC` [N-octadecane] came in with a melting point of 28 °C.

Compound `O=Cc1cc(Cl)cc(Cl)c1` [3,5-Dichlorobenzaldehyde] displayed a melting point of 68 °C.

The compound `Nc1ccccc1` [Aniline] came in with a melting point of -6 °C.

`Nc1c(Cl)cc(C(F)(F)F)cc1[N+](=O)[O-]` [2-chloro-6-nitro-4-(trifluoromethyl)aniline] had a melting point of 65 °C.

For `OC[C@@H]1CCCN2CCCC[C@H]12` [lupinine], the melting point worked out at 64 °C.

Regarding `Cc1ccccc1CCl` [2-methylbenzyl chloride], the melting point worked out at 2 °C.

Consider `COc1cc(OC)c(C=O)c(OC)c1` [2,4,6-trimethoxybenzaldehyde], for which the melting point was 120 °C.

On to `CCC(=O)c1ccc(Cl)cc1` [1-(4-Chlorophenyl)propan-1-one], for which the melting point is 35.5 °C.

`O=C(NC1CCC(O)CC1)OCc1ccccc1` (configuration not stated) [4-(benzyloxycarbonylamino)cyclohexanol]: the melting point came out at 163 °C.

In turn, `CC(=O)O` [acetic_acid] had a melting point of 17 °C.

`O=Cc1ccco1` [2-Furaldehyde] showed a melting point of -36 °C.

In turn, `CCCCCCCCCC(=O)O` [decanoic acid] displayed a melting point of 31 °C.

On to `N#CCC(=O)N1CCCC1` [1-(cyanoacetyl)pyrrolidine], for which the melting point was 73 °C.

In the case of `O=[N+]([O-])c1ccc(Cl)cc1` [1-chloro-4-nitrobenzene], the melting point was determined as 84 °C.

In turn, `CC(=O)Nc1nnc(S(N)(=O)=O)s1` [Acetazolamide] showed a melting point of 260 °C.

For the compound `O=[N+]([O-])c1cc[n+]([O-])cc1` [4-nitropyridine n-oxide], the melting point was 161 °C.

`CSSC` [dimethyl disulfide] showed a melting point of -85 °C.

As for `CCCCC=O` [valeraldehyde], the melting point is -92 °C.

In the case of `c1ccc(C2=C(c3ccccc3)C(c3ccccc3)C(c3ccccc3)=C2c2ccccc2)cc1` [pentaphenylcyclopentadiene], the melting point was found to be 256 °C.

`COc1ccc([C@@H]2CC(=O)c3c(O)cc(O)cc3O2)cc1O` [hesperetin] returned a melting point of 228 °C.

On to `c1ccc2c(c1)Cc1ccccc1O2` [xanthene], for which the melting point was 100 °C (2×) and 102 °C.

Consider `ON=Cc1ccncc1` [pyridine-4-carboxaldoxime], for which the melting point was found to be 132 °C.

The compound `O=C(O)c1ccc(N2C(=O)C3ON=C(C(=O)c4ccc(Cl)cc4)C3C2=O)cc1` (configuration not stated) gave a melting point of 144 °C.

The compound `C1CCC2=NCCCN2CC1` [1,8-diazabicyclo[5.4.0]undec-7-ene] registered a melting point of -70 °C.

In the case of `C=C(C)[C@@H]1CCC2=CC(=O)C[C@@H](C)[C@]2(C)C1`, the melting point worked out at 36.9 °C.

In turn, `O=C1c2ccccc2C(=O)N1c1nc2ccccc2[nH]1` [2-(1H-Benzimidazol-2-yl)-1H-isoindole-1,3(2H)-dione] returned a melting point of 274 °C.

As for `Cc1cc(O)ccc1O` [2-methylhydroquinone], the melting point was 129 °C.

Compound `Cc1c[n+]([O-])ccc1[N+](=O)[O-]` [4-nitro-3-picoline n-oxide] registered a melting point of 136 °C.

Compound `O=C(Oc1ccccc1C(=O)O)c1ccccc1O` [salicylsalicylic acid] gave a melting point of 135 °C.

Turning to `C=CCCCCCCCCCCC` [1-tridecene], the melting point is -23 °C.

`O=[N+]([O-])c1ccc(Cl)cc1Cl` [2,4-dichloronitrobenzene]: the melting point was 31 °C.

Compound `CC(O)CO` (configuration not stated) [1,2-propanediol] returned a melting point of -60 °C.

On to `COc1cc(C#N)ccc1O` [4-hydroxy-3-methoxybenzonitrile], for which the melting point amounted to 87 °C.

For the compound `NC(=O)c1ccc(F)c(Cl)c1` [3-chloro-4-fluorobenzamide], the melting point turned out to be 146 °C.

Regarding `Cc1ccc(S(=O)(=O)CC(=O)O)cc1` [p-toluenesulfonylacetic acid], the melting point stood at 118 °C.

For `CCN(Cc1ccncc1)C(=O)C(CO)c1ccccc1` (configuration not stated) [tropicamide], the melting point came out at 96 °C.

Compound `CNCCCC12CCC(c3ccccc31)c1ccccc12` [maprotiline] yielded a melting point of 92 °C.

Compound `O=CNC1C/C=C/CC(NC=O)C/C=C/C1` (configuration not stated) [N,N'-(3E,8E)-cyclodeca-3,8-diene-1,6-diyldiformamide] yielded a melting point of 234 °C.

In the case of `O=C(Oc1ccccc1)Oc1ccccc1` [diphenyl carbonate], the melting point came out at 79 °C.

Compound `Fc1cccc(P(c2cccc(F)c2)c2cccc(F)c2)c1` [tris(3-fluorophenyl)phosphine] displayed a melting point of 62 °C.

`O=C(O)c1cccc([N+](=O)[O-])c1C(=O)O` [3-nitrophthalic acid]: the melting point was 212 °C.

The compound `Cc1cc(=O)cc(C)o1` [2,6-dimethyl-4-pyrone] gave a melting point of 134 °C.

`CC(C(=O)O)c1ccc(-c2ccccc2)c(F)c1` (configuration not stated) [Flurbiprofen] gave a melting point of 110 °C.

`CN(C)c1ccc(/C=C2\SC(=S)NC2=O)cc1` [5-(4-dimethylaminobenzylidene)rhodanine]: the melting point stood at 278 °C.

The compound `Clc1ccc(C(c2ccccc2Cl)C(Cl)(Cl)Cl)cc1` (configuration not stated) [2,4'-DDT] came in with a melting point of 75 °C.

`Fc1ccc(/C=N/n2c(S)nnc2C(F)(F)F)cc1` registered a melting point of 212 °C.
